Measurements reported in patent US7939552B2, “Benzyloxypropylamine derivative” (Nippon Zoki Pharmaceutical Co., Ltd., priority 2005, dated 2011).
Where two headings read alike, the source gives them in different places.

Assays:
NK1 receptor = biological target: T1, NK1 receptor (Cavia porcellus, UniProt P30547); test: Test for transfer into cerebral center of guinea pigs ([3H]substance P binding in striatum homogenate after oral dosing); type: in vivo; conditions: 4 hours after oral administration of 20 mg/mL at 5 mL/kg
T1 construct: the brain was excised and the striatum was collected; from tissue; host or cells: striatum of male Hartley guinea pigs (Nippon SLC), homogenate after oral dosing
T1 sequence (P30547 whole entry): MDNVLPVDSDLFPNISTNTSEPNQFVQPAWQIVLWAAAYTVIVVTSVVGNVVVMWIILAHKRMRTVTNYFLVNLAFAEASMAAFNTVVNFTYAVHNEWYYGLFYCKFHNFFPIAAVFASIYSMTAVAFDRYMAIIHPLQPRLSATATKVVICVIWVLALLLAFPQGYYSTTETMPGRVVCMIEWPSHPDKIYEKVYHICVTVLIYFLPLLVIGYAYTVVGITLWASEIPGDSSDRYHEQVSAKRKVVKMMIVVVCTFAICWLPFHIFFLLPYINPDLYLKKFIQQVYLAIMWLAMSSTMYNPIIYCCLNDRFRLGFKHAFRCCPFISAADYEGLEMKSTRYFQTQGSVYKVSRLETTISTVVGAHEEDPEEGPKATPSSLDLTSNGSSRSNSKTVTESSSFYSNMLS
Method: Male guinea pigs of a Hartley strain (four weeks age, SPF, Nippon SLC) were purchased, subjected to a preliminary breeding for not shorter than one week, fasted for one night and used for the test where one group comprised eight guinea pigs. As a substance to be tested, the Compound 21 which is the compound of the present invention was suspended in 1% methyl cellulose […] to make 20 mg/mL. As a substance for comparison, LY-303870 [(R)-1-[N-(2-methoxybenzyl)acetylamino]-3-(1H-indol-3-yl)-2-[N-(2-(4-(piperidin-1-yl)piperidin-1-yl)acetyl)amino]propane] was dissolved in a 1% aqueous solution of MC to make 20 mg/mL.
A test was conducted in accordance with a method of Iyengar, et al. Thus, a 1% aqueous solution of MC and the above-prepared solution of the test substance were orally administered in an administering dose of 5 mL/kg, then the animals were killed by carbon dioxide gas after 4 hours from administration of the test substance solution and after 1 hour from administration of the 1% aqueous MC solution and the comparative substance solution, the brain was excised and the striatum was collected. After measuring its wet weight, 50 mmol/L Tris-HCl (pH 7.5) was added thereto so as to make it 40 mg/mL followed by homogenizing for 10 seconds. […]

[1] = Pharmacokinetic test in blood by a single oral administration to guinea pigs; type: in vivo; conditions: 100 mg/kg orally, plasma; for AUC(0-t): read-out: AUC 0-24 h; for half-life: read-out: t½ (converted)
Method: Male guinea pigs of a Hartley strain (SPF, Nippon SLC) were purchased and subjected to a preliminary breeding for one week and the normally grown ones were fasted for one night and used for the test. The compound of the present invention was suspended in 1 g/dL methyl cellulose solution and 100 mg/kg was orally administered in an administering dose of 5 mL/kg. After 0.5, 1, 2, 4, 8 and 24 hour(s) from the oral administration, about 0.4 mL of blood was collected from the vein of median of foreleg using a heparinized capillary. Plasma prepared by its centrifugation (at 12,000 rpm for 10 minutes) was stored at −80° C. until the measurement. Measurement of the concentration in blood was conducted by a UV-detecting HPLC method.

human NK1 receptor = biological target: T2, human NK1 receptor (Homo sapiens, UniProt P25103); test: Human NK1 receptor binding assay (3H-Sar9-SP, hNK1-CHO cells); conditions: room temperature 60 minutes
T2 construct: expressed in transfected cells; host or cells: CHO cells (hNK1-CHO)
T2 sequence (P25103 whole entry): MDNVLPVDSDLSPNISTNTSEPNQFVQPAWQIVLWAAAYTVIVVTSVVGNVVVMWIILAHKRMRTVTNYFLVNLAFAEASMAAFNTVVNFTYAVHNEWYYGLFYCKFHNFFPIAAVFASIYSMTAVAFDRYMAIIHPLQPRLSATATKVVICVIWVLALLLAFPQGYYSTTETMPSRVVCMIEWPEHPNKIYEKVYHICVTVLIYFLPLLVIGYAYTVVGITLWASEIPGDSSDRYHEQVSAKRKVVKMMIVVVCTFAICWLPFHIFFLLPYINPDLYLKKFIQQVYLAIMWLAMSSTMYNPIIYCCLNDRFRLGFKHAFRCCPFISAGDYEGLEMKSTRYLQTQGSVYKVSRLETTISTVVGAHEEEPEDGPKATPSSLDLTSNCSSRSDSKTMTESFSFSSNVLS
Method: A supernatant liquid was removed from an hNK1-CHO cell incubation flask in a confluent state, trypsin (0.25%)-EDTA (1 mmol/L) (Gibco) was added thereto and the cells were exfoliated and recovered. After they were washed with a buffer A (pH 7.5; 50 mmol/L Tris hydrochloride 50 mmol/L, 150 mmol/L NaCl and 0.02% BSA) for one time (at […] for 5 minutes), cell numbers were adjusted and re-floated on a buffer for assay {a buffer A to which 40 μg/mL bacitracin (Sigma), 4 μg/mL leupeptin (Sigma), 4 μg/mL chymostatin (Sigma) and 4 μg/mL phosphoramidon (Sigma) were added}. The hNK1-CHO cells (100 μL) were placed in a tube (TPX-12, Maruemu) in which 300 μL of the buffer for assay was charged so as to make cells 10^5 per tube, 50 μL of a hot solution (^3H-Sar^9-SP, final concentration: […]) and 50 μL of a substance to be tested were added (a system of 500 μL), stirred and made to react at room temperature for 60 minutes. After completion of the reaction, it was filtered through a GF/B filter (25 mm diameter, Whatman) which was previously dipped in 0.1% polyethyleneimine p-70 (Wako Pure Chemical), washed with the buffer A (4 mL each for three times), placed in a vial and dried at 60° C. for one night. After drying, 10 mL of a scintillator (AL-1, toluene base, Dojindo) was added thereto and dpm was measured by a liquid scintillation counter (for 5 minutes/vial).
With regard to a nonspecific binding, it was defined as the dpm when 10 μmol/L of the substance P was added instead of the substance to be tested. The experiment was conducted in duplicate and at least three experiments were repeated. IC50 value was calculated using a probit method (statistic library II, Yukms).

[2] = male, Hartley, guinea pig, po, read-out: Cmax
[3] = male, Hartley, guinea pig, po, read-out: Tmax

Row | Structure (SMILES) | specific binding of [3H]substance P (NK1 receptor; guinea pig striatum homogenate, control group 1083.4±95.5 dpm) | occupying rate of the NK1 receptor in the brain (NK1 receptor; guinea pigs, mean value ±standard deviation) | Cmax [1] | Tmax [1] | t½ [1] | IC50 (human NK1 receptor) | AUC(0-t) ([1]; male, Hartley, guinea pig, po) | Cmax [1, 2] | Tmax [1, 3] | half-life ([1]; male, Hartley, guinea pig, po)
1 | O=C(NCC(COCc1cc(C(F)(F)F)cc(C(F)(F)F)c1)c1ccc(F)cc1)c1cc[n+]([O-])cc1 (centres unmarked) [Compound 21, N-[3-(3,5-Bis(trifluoromethyl)benzyloxy)-2-(4-fluorophenyl)propyl]-1-oxyisonicotinamide] | 228.2±15.5 dpm | 79.9±1.4% | 26900 ng/mL | 4 h | 3.2 h | 2.9 nM |  |  |  | 
2 | O=C(Cc1ccc[n+]([O-])c1)NCC(COCc1cc(C(F)(F)F)cc(C(F)(F)F)c1)c1ccc(F)cc1 (centres unmarked) [Compound 42, N-[3-(3,5-Bis(trifluoromethyl)benzyloxy)-2-(4-fluorophenyl)propyl]-2-(1-oxypyridin-3-yl)acetamide] |  |  |  |  |  | 4 nM | 215 µg·h/mL | 16900 ng/mL | 4 h | 3 h
3 | O=C(NCC(COCc1cc(C(F)(F)F)cc(C(F)(F)F)c1)c1ccc(F)cc1)c1ccc[n+]([O-])c1 (centres unmarked) [Compound 23, N-[3-(3,5-Bis(trifluoromethyl)benzyloxy)-2-(4-fluorophenyl)propyl]-1-oxynicotinamide] |  |  |  |  |  | 5.4 nM | 236 µg·h/mL | 17500 ng/mL | 4 h | 3.5 h

Now from value to molecule:

Row | specific binding of [3H]substance P (NK1 receptor; guinea pig striatum homogenate, control group 1083.4±95.5 dpm) | occupying rate of the NK1 receptor in the brain (NK1 receptor; guinea pigs, mean value ±standard deviation) | Cmax [1] | Tmax [1] | t½ [1] | IC50 (human NK1 receptor) | AUC(0-t) ([1]; male, Hartley, guinea pig, po) | Cmax [1, 2] | Tmax [1, 3] | half-life ([1]; male, Hartley, guinea pig, po) | Structure (SMILES)
4 |  |  |  |  |  | 56.4 nM | 19.7 µg·h/mL | 1700 ng/mL | 4 h | 8 h | Cl.O=C(NCC(COCc1cc(C(F)(F)F)cc(C(F)(F)F)c1)c1ccccc1)c1ccc(CN2CCCC2)cc1 (centres unmarked) [Compound 64, N-[3-(3,5-Bis(trifluoromethyl)benzyloxy)-2-phenylpropyl]-4-pyrrolidin-1-ylmethylbenzamide hydrochloride]
5 |  |  |  |  |  | 9.4 nM | 103 µg·h/mL | 13800 ng/mL | 1 h | 3.4 h | O=C(CCc1cc[n+]([O-])cc1)NCC(COCc1cc(C(F)(F)F)cc(C(F)(F)F)c1)c1ccccc1 (centres unmarked) [Compound 51, N-[3-(3,5-Bis(trifluoromethyl)benzyloxy)-2-phenylpropyl]-3-(1-oxypyridin-4-yl)propionamide]
